Assay results from paper PMC13045254, “Dual Targeting of DNA and EGFR by ZYH005 Induces DNA Damage and Mitotic Catastrophe in Glioblastoma” (MedComm, 2026).

Molecular target: T1, epidermal growth factor receptor (EGFR) (Homo sapiens, UniProt P00533)
T1 construct: recombinant EGFR kinase domain
Experiment: SPR with recombinant kinase domain; supported by CETSA, DARTS and LiP-MS
Type: binding

T1 sequence (P00533 712-979 limits assumed): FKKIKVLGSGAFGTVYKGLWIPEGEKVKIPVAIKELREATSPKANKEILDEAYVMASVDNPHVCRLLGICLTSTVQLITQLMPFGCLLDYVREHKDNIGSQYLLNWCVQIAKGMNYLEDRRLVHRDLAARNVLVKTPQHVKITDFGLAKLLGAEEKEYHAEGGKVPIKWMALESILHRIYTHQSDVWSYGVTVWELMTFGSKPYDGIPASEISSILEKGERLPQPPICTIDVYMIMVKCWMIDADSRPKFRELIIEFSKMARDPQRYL

Kd: 19.6 µM
SMILES: COc1ccc(CCn2c(=O)c3cc4c(cc3c3ccccc32)OCO4)cc1 [Z5, ZYH005]
